Measurements published in US12558428B2, “Heterobifunctional compounds and their use in treating disease” (Halda Therapeutics OpCo, Inc., priority 2024, dated 2026).
Where two headings read alike, the source gives them in different places.

What was measured:
Format in all cases: cell-based
[1] = system: MCF7 cells (ATCC #HTB-22); experiment: Cellular growth inhibition assay, MCF7 cells purchased from ATCC; conditions: Homo sapiens, MCF7, 144 h, Table 8-A; MCF7 cells purchased from ATCC; six days; CellTiter-Glo; read-out: GI50
Outline: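 GI50 values come from a four-parameter fit of CellTiter-Glo 2.0 luminescence after six days of compound exposure at 37° C. Seeding density depended on the source: 225 cells/well for ECACC MCF7, 1,500 for ATCC. Medium was RPMI 1640 with 10% FBS and 0.2 U/ml insulin.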

[2] = system: T-Rex 293 cells having increased expression of estrogen receptor alpha protein; experiment: Cellular growth inhibition assay, T-Rex 293 cells, (+) doxycycline; conditions: T-REx-293, 72 h, 72 hours
Outline: (§1)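 Cells of an inducible ERα-expressing T-Rex 293 clone are seeded in charcoal-dextran FBS medium with or without 3 ng/mL doxycycline, then treated after 24 h with compound dilutions (0.5% DMSO) for 72 h. Growth inhibition is measured by CellTiter-Glo luminescence and expressed as GI50.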

[3] = system: T-Rex 293 cells lacking increased expression of estrogen receptor alpha protein; experiment: Cellular growth inhibition assay, T-Rex 293 cells, (−) doxycycline; conditions: T-REx-293, 72 h, 72 hours
Outline: as §1

[4] = Table 7-A, T-Rex 293 cells with doxycycline (increased ERα expression), CellTiter-Glo, read-out: (+) Dox GI50
[5] = Table 7-A, T-Rex 293 cells without doxycycline (lacking increased ERα expression), CellTiter-Glo, read-out: (−) Dox GI50

Row | GI50 [1] [nM] | SMILES | GI50 [2, 4] [nM] | GI50 [3, 5] [nM] | GI50 ([2]; T-Rex 293 cells with doxycycline-induced ERα expression, CellTiter-Glo 2.0, read-out: (+) Dox TRex ERa (GI50)) [nM] | GI50 ([3]; T-Rex 293 cells without doxycycline, CellTiter-Glo 2.0, read-out: (−) Dox TRex ERa (GI50)) [nM] | GI50 ([2]; Table 7-B, T-Rex 293 cells with doxycycline (increased ERα expression), CellTiter-Glo, read-out: (+) Dox GI50) [nM] | GI50 ([3]; Table 7-B, T-Rex 293 cells without doxycycline (lacking increased ERα expression), CellTiter-Glo, read-out: (−) Dox GI50) [nM]
1 | 50 to 500 | Cc1sc2c(c1C)C(c1ccc(N3CCN(CC4CCN(c5ccc([C@@H]6c7ccc(O)cc7CC[C@@H]6c6ccccc6)cc5)CC4)CC3)cc1)=N[C@@H](CC(=O)O)c1nnc(C)n1-2 [III-81] | 50 to 500 | > 2500 | – | – | – | –
2 | 50 to 500 | Cc1sc2c(c1C)C(c1ccc(N3CCC(O)(CN4CCN(c5ccc([C@H]6c7ccc(O)cc7CC[C@H]6c6ccccc6)nn5)CC4)CC3)cc1)=N[C@@H](C)c1nnc(C)n1-2 [III-218] | < 50 | 50 to 500 | – | – | – | –
3 | 50 to 500 | Cc1sc2c(c1C)C(c1ccc(N3CCC4(CC3)CN(CCOc3ccc([C@@H]5c6ccc(O)cc6CC[C@@H]5c5ccccc5)cc3)C4)cc1)=N[C@@H](C)c1nnc(C)n1-2 [III-78] | 50 to 500 | 50 to 500 | – | – | – | –
4 | 50 to 500 | Cc1sc2c(c1C)C(c1ccc(OCC3CN(CC4CCN(c5ccc([C@H]6c7ccc(O)cc7CC[C@H]6c6ccccc6)cc5)CC4)C3)cc1)=N[C@@H](C)c1nnc(C)n1-2 [III-69] | 50 to 500 | 50 to 500 | – | – | – | –
5 | < 50 | Cc1sc2c(c1C)C(c1ccc(NCCCC3CCN(CCOc4ccc([C@@H]5c6ccc(O)cc6CC[C@@H]5c5ccccc5)cc4)CC3)cc1)=NC(Cc1ncco1)c1nnc(C)n1-2 (stereo partly drawn) [III-48] | < 50 | 50 to 500 | – | – | – | –
6 | > 2500 | Cc1sc2c(c1C)C(c1ccc(N3CC(CN4CCN(CC5CN(c6ccc([C@H]7c8ccc(O)cc8CC[C@H]7c7ccccc7)cc6)C5)CC4)C3)cc1)=N[C@H](C)c1nnc(C)n1-2 [III-136] | > 2500 | > 2500 | – | – | – | –
7 | 50 to 500 | Cc1sc2c(c1C)C(c1ccc(N3CCN(CC4CCN(c5ncc([C@@H]6c7ccc(O)cc7CC[C@@H]6c6ccccc6)cn5)CC4)CC3)cc1)=N[C@@H](Cc1ncco1)c1nnc(C)n1-2 [III-128] | < 50 | 50 to 500 | – | – | – | –
8 | 50 to 500 | Cc1sc2c(c1C)C(c1ccc(N3CC4(CC(CN5CCN(c6cc(F)c([C@H]7c8ccc(O)cc8CC[C@H]7c7ccccc7)c(F)c6)CC5)C4)C3)cc1)=N[C@@H](C)c1nnc(C)n1-2 [III-278] | 50 to 500 | 500 to 2500 | – | – | – | –
9 | 50 to 500 | Cc1sc2c(c1C)C(c1ccc(NCC3(F)CCN(CCOc4ccc([C@@H]5c6ccc(O)cc6CC[C@@H]5c5ccccc5)cc4)CC3)cc1)=NC(Cc1ncco1)c1nnc(C)n1-2 (stereo partly drawn) [III-30] | < 50 | 50 to 500 | – | – | – | –
10 | 50 to 500 | Cc1sc2c(c1C)C(c1ccc(N3CCC(O)(CN4CCN(c5ccc([C@@H]6c7ccc(C(=O)O)cc7CC[C@@H]6c6ccccc6)cc5)CC4)CC3)cc1)=N[C@@H](C)c1nnc(C)n1-2 [III-188] | < 50 | 50 to 500 | – | – | – | –
11 | < 50 | Cc1sc2c(c1C)C(c1ccc(N3CCC(O)(CN4CCN(c5cc(F)c([C@@H]6c7ccc(O)cc7CC[C@@H]6c6ccccc6)cc5F)CC4)CC3)cc1)=N[C@@H](Cc1ncco1)c1nnc(C)n1-2 [III-299] | < 50 | 50 to 500 | – | – | – | –
12 | < 50 | Cc1sc2c(c1C)C(c1ccc(N3CCN(CC4CN(c5ccc([C@@H]6c7ccc(O)cc7CC[C@@H]6c6ccccc6)cc5)C4)CC3)cc1)=N[C@@H](C)c1nnc(C)n1-2 [III-67] | < 50 | < 50 | – | – | – | –
13 | 50 to 500 | Cc1sc2c(c1C)C(c1ccc(N[C@H]3CCCCN(CCOc4ccc([C@@H]5c6ccc(O)cc6CC[C@@H]5c5ccccc5)cc4)C3)cc1)=NC(Cc1ncco1)c1nnc(C)n1-2 (stereo partly drawn) [III-47] | 50 to 500 | 50 to 500 | – | – | – | –
14 | 50 to 500 | Cc1sc2c(c1C)C(c1ccc(NCCC3CCCN(CCOc4ccc([C@@H]5c6ccc(O)cc6CC[C@@H]5c5ccccc5)cc4)C3)cc1)=NC(Cc1ncco1)c1nnc(C)n1-2 (stereo partly drawn) [III-45] | < 50 | 50 to 500 | – | – | – | –
15 | 50 to 500 | Cc1sc2c(c1C)C(c1ccc(N3CCC(C)(CN4CCC(c5ccc([C@@H]6c7ccc(O)cc7CC[C@@H]6c6ccccc6)cc5)CC4)CC3)cc1)=N[C@@H](C)c1nnc(C)n1-2 [III-145] | 500 to 2500 | 500 to 2500 | – | – | – | –
16 | < 50 | Cc1sc2c(c1C)C(c1ccc(N3CCC(O)(CN4CCN(c5cc(F)c([C@@H]6c7ccc(O)cc7CC[C@@H]6c6ccccc6)c(F)c5)CC4)CC3)cc1)=N[C@@H](Cc1ncco1)c1nnc(C)n1-2 [III-196] | < 50 | 50 to 500 | – | – | – | –
17 | < 50 | Cc1sc2c(c1C)C(c1ccc(N3CC4(CCC(O)(CN5CCN(c6cc(F)c([C@@H]7c8ccc(O)cc8CC[C@@H]7c7ccc(F)cc7)c(F)c6)CC5)CC4)C3)cc1)=N[C@@H](C)c1nnc(C)n1-2 [III-266] | < 50 | 500 to 2500 | – | – | – | –
18 | 500 to 2500 | Cc1sc2c(c1C)C(c1ccc(CC3CC4(CCN(c5ccc([C@@H]6c7ccc(O)cc7CC[C@@H]6c6ccccc6)cc5)CC4)C3)cc1)=N[C@@H](C)c1nnc(C)n1-2 [III-14] | 50 to 500 | 500 to 2500 | – | – | – | –
19 | 500 to 2500 | Cc1sc2c(c1C)C(c1ccc(N3CC4(CC(CN5CCN(c6ccc([C@H]7c8ccc(O)cc8CC[C@H]7c7ccc(F)cc7)cc6F)CC5)C4)C3)cc1)=N[C@@H](C)c1nnc(C)n1-2 [III-281] | 50 to 500 | 500 to 2500 | – | – | – | –
20 | < 50 | Cc1sc2c(c1C)C(c1ccc(NCC3CC4(C3)CN(CCOc3ccc([C@@H]5c6ccc(O)cc6CC[C@@H]5c5ccccc5)cc3)C4)cc1)=NC(Cc1ncco1)c1nnc(C)n1-2 (stereo partly drawn) [III-51] | < 50 | 50 to 500 | – | – | – | –
21 | < 50 | Cc1sc2c(c1C)C(c1ccc(N3CC(C(=O)N4CCC(CC5CN(c6ccc([C@@H]7c8ccc(O)cc8CC[C@@H]7c7ccccc7)cc6)C5)CC4)C3)cc1)=N[C@@H](C)c1nnc(C)n1-2 [III-134] | < 50 | 50 to 500 | – | – | – | –
22 | 50 to 500 | Cc1sc2c(c1C)C(c1ccc(N3CCC(CN4CCN(c5ccc([C@H]6c7ccc(O)cc7CC[C@H]6c6ccccc6)cc5)CC4)CC3)cc1)=N[C@@H](C)c1nnc(C)n1-2 [III-6] | 50 to 500 | 500 to 2500 | – | – | – | –

The remaining lines, values behind:

Row | SMILES | GI50 [1] [nM] | GI50 [2, 4] [nM] | GI50 [3, 5] [nM] | GI50 ([2]; T-Rex 293 cells with doxycycline-induced ERα expression, CellTiter-Glo 2.0, read-out: (+) Dox TRex ERa (GI50)) [nM] | GI50 ([3]; T-Rex 293 cells without doxycycline, CellTiter-Glo 2.0, read-out: (−) Dox TRex ERa (GI50)) [nM] | GI50 ([2]; Table 7-B, T-Rex 293 cells with doxycycline (increased ERα expression), CellTiter-Glo, read-out: (+) Dox GI50) [nM] | GI50 ([3]; Table 7-B, T-Rex 293 cells without doxycycline (lacking increased ERα expression), CellTiter-Glo, read-out: (−) Dox GI50) [nM]
23 | Cc1sc2c(c1C)C(c1ccc(N3CCC(O)(CN4CCN(c5ccc(C6=C(c7ccccc7Cl)CCCc7cc(C(=O)O)ccc76)c(F)c5)CC4)CC3)cc1)=N[C@@H](Cc1ncco1)c1nnc(C)n1-2 [IV-60] | < 50 | < 50 | 50 to 500 | – | – | – | –
24 | Cc1sc2c(c1C)C(c1ccc(N3CCC(O)(CN4CCN(c5ccc(C6=C(c7ccccc7Cl)CCCc7cc(C(=O)O)ccc76)cc5)CC4)CC3)c(Cl)c1)=N[C@@H](C)c1nnc(C)n1-2 [IV-61] | < 50 | < 50 | 500 to 2500 | – | – | – | –
25 | Cc1sc2c(c1C)C(c1ccc(C#CC3CC4(CCN(c5ccc([C@@H]6c7ccc(O)cc7CC[C@@H]6c6ccccc6)cc5)CC4)C3)cc1)=N[C@@H](Cc1ncco1)c1nnc(C)n1-2 [I-46] | 50 to 500 | < 50 | > 2500 | – | – | – | –
26 | Cc1sc2c(c1C)C(c1ccc(N3CC(CC4CN(CC5CN(c6ccc(C7=C(c8ccccc8)CCCc8cc(C(=O)O)ccc87)cc6)C5)C4)C3)cc1)=N[C@@H](C)c1nnc(C)n1-2 [IV-23] | < 50 | < 50 | 50 to 500 | – | – | – | –
27 | Cc1sc2c(c1C)C(c1ccc(N3CC4(CCC(CN5CCC(c6ccc(C7=C(c8ccccc8Cl)CCCc8cc(C(=O)O)ccc87)cc6)CC5)CC4)C3)cc1)=N[C@@H](C)c1nnc(C)n1-2 [IV-56] | < 50 | < 50 | 50 to 500 | – | – | – | –
28 | CC1=C(c2ccc(O)cc2)[C@H](c2ccc(OCCN3CC[C@@H](OCCOCCOc4ccc(C5=N[C@@H](C)c6nnc(C)n6-c6sc(C)c(C)c65)cc4)C3)cc2)Oc2cc(O)ccc21 [I-60] | 50 to 500 | 50 to 500 | 500 to 2500 | – | – | – | –
29 | CC1=C(c2c(F)cc(F)cc2F)[C@@H](c2ccc(N3CCC(CN4CCC5(CC4)CN(c4ccc(C6=N[C@@H](C)c7nnc(C)n7-c7sc(C)c(C)c76)cc4)C5)CC3)cc2)Oc2ccc(O)cc21 [V-20] | 50 to 500 | < 50 | 500 to 2500 | – | – | – | –
30 | Cc1sc2c(c1C)C(c1ccc(N3CCC(O)(CN4CCN(c5ccc(C6=C(c7ccccc7)CCCc7cc(C(=O)O)ccc76)cc5)CC4)CC3)cc1)=N[C@@H](C)c1nnc(C)n1-2 [IV-16] | < 50 | < 50 | 500 to 2500 | – | – | – | –
31 | Cc1sc2c(c1C)C(c1ccc(Cl)cc1)=N[C@@H](CC(=O)NCCCCOCCOc1ccc(C(=O)c3c(-c4ccc(O)cc4)sc4cc(O)ccc34)cc1)c1nnc(C)n1-2 [I-17, (S)-2-(4-(4-chlorophenyl)-2,3,9-trimethyl-6H-thieno[3,2-f][1,2,4]triazolo[4,3-a][1,4]diazepin-6-yl)-N-(4-(2-(4-(6-hydroxy-2-(4-hydroxyphenyl)benzo[b]thiophene-3-carbonyl)phenoxy)ethoxy)butyl)acetamide] | 50 to 500 | – | – | 500 to 2500 | 500 to 2500 | – | –
32 | Cc1cc(N2CCC(O)(CN3CCN(c4cc(F)c([C@@H]5c6ccc(O)cc6CC[C@@H]5c5ccccc5)cc4F)CC3)CC2)ccc1Oc1ccc(C(C)(C)O)cc1-c1cn(C)c(=O)c2[nH]ccc12 [V-37] | < 50 | – | – | – | – | < 50 | 500 to 2500
